Holding throughout (experiment): NCI anticancer screen, dose series, 48 h
The test system of assay [1] is CAKI-1 renal.
For assay [2], the system named is COLO 205 colon.
The test system of assay [3] is HOP-62 NSCLC.
Assay [4] has as its system K-562 leukemia.
Assay [5] deals with MCF7 breast.
In assay [6] the test system is MDA-MB-231 breast.
Assay [7] concerns RPMI-8226 leukemia.
Assay [8] concerns RXF 393 renal.
Assay [9] deals with SK-MEL-5 melanoma.
The test system of assay [10] is SK-OV-3 ovarian.

Experimental findings from PubChem BioAssay (NCI) are described below.

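1) Cells in 96-well plates. 2) Compound, 48 h, 5 concentrations. 3) Linear interpolation between surrounding doses. 4) Unreached endpoint = highest concentration. The concentration for 50% growth inhibition is given as GI50. At the TGI there is no net growth.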 Some results are limits rather than exact numbers.

Turning to `C=CCSSc1ncnc2c1ncn2C1OC(CO)C(O)C1O` (stereo not given), the GI50 in [1] is 0.799 µM; in [2] it was 2.74 µM; in [3], 1.78 µM; in [4], 1.2 µM; in [5] it was 0.567 µM; in [6] it was 3.76 µM. Besides, the GI50 was 1.15 µM in assay [7], 6.93 µM in [8], 3.43 µM in assay [9] and 0.501 µM in assay [10]. The TGI in [1] was above 68.8 µM; in assay [2] it was 13.1 µM; in assay [3] it was above 100 µM; in assay [4] it was above 39.4 µM; in [5], 11.6 µM; in assay [6], above 100 µM. The TGI is 6.47 µM in assay [7], 27.1 µM in [8], above 50.7 µM in assay [9] and above 87.2 µM in assay [10].
As for `COc1ccc2nc(-c3cc4c([nH]c5ccccc54)c(-c4ccc(F)c(F)c4)n3)[nH]c2c1`, the GI50 in assay [1] was 2.41 µM; in [2], 1.88 µM; in assay [3], 10.9 µM; in assay [4], 3.35 µM; in assay [5], 3.23 µM; in assay [6] it was 10.4 µM. Besides, the GI50 is 1.55 µM in [7], 3.46 µM in assay [8], 4.91 µM in assay [9] and 17.1 µM in assay [10]. Moreover, the TGI in assay [1] worked out at 8.97 µM; in [2] it was 4.66 µM; in assay [3], 25.5 µM; in [4], 24.4 µM; in assay [5] it was 17.1 µM; in assay [6] it was 34 µM. The TGI in [7] is 4.29 µM; in assay [8], 13.1 µM; in assay [9] it was 21.9 µM; in assay [10], 31.4 µM.
Take `Cc1nn(C)c2cc(N(C)c3ccnc(Nc4cccc(S(N)(=O)=O)c4)n3)ccc12`: the GI50 in assay [1] is 7.17 µM; in assay [2] it was above 17.3 µM; in assay [3], above 15 µM; in assay [4], 2.13 µM; in assay [5], 7.11 µM; in [6] it was 8.03 µM. Further, the GI50 is 6.82 µM in assay [7], 5.98 µM in assay [8], 3.62 µM in assay [9] and above 11.8 µM in [10]. Moreover, the TGI in assay [1] is above 22.6 µM; in assay [2], above 25 µM; in [3], above 25 µM; in assay [4], above 25 µM; in assay [5], above 25 µM; in assay [6], above 25 µM. Also, the TGI in assay [7] was above 25 µM; in assay [8], above 19.2 µM; in assay [9] it was 8.4 µM; in [10], above 25 µM.
For the compound `CCOCCOC[C@H]1CCCN(c2ccnc3sc(C(N)=O)c(N)c23)C1`, the GI50 in assay [1] was 30.5 µM; in [2], 59.7 µM; in assay [3], above 100 µM; in assay [4], 8.44 µM; in assay [5], 25.1 µM; in assay [6], 58.7 µM. Moreover, the GI50 in [7] is 1.65 µM; in assay [8], 47.8 µM; in assay [9], 4.05 µM; in assay [10], 40.3 µM. For the same compound, the TGI in [1], in assay [2], in [3], in assay [4], in assay [5] and in [6] was above 100 µM each time. The TGI in [7] was above 100 µM; in assay [8] it was above 100 µM; in assay [9] it was 36.9 µM; in [10] it was above 100 µM.
For the compound `Cc1nc2sc(C(=O)Nc3cccc(Br)c3)c(N)c2cc1C(O)c1ccccc1` (stereo not given), the GI50 in [1] is 0.632 µM; in [2], 3.61 µM; in assay [3] it was 1.57 µM; in assay [4] it was 0.364 µM; in [5], 0.372 µM; in assay [6], 1.85 µM. In addition, the GI50 in [7] was 0.511 µM; in assay [8], 0.483 µM; in [9] it was 0.552 µM; in assay [10] it was 1.76 µM. Also, the TGI in assay [1] was 15.6 µM; in assay [2], 20.2 µM; in assay [3], 32.4 µM; in assay [4], above 42.7 µM; in [5], 17 µM; in assay [6], 16.4 µM. The TGI in [7] is above 23.1 µM; in [8], 10.9 µM; in [9], 1.96 µM; in [10] it was 19.1 µM.
For `Nc1nc(-c2ccc(Cl)cc2)cc(-c2ccccc2)c1-c1nc2ccccc2o1`, the GI50 in assay [1] is 12.2 µM; in assay [2], 19.1 µM; in assay [3], 2.92 µM; in assay [4] it was 3.69 µM; in assay [5], 3.1 µM; in assay [6], 5.02 µM. Further, the GI50 in assay [7] is 6.9 µM; in [8], 3.69 µM; in assay [9] it was 14.6 µM; in assay [10], 15.4 µM. Further, the TGI in assay [1] is 28.6 µM; in [2] it was 35.9 µM; in assay [3], 7.47 µM; in assay [4], above 100 µM; in assay [5], above 100 µM; in [6], 17.8 µM. Also, the TGI in assay [7] was found to be 23 µM; in assay [8], 16.9 µM; in assay [9], 29.4 µM; in [10] it was 32.4 µM.
On to `Cc1cc2nc(C(Cl)Cl)nc(-c3ccccc3)n2n1`, for which the GI50 in assay [1] was 2.7 µM; in assay [2] it was 1.77 µM; in assay [3], 2.48 µM; in assay [4] it was 4.61 µM; in assay [5], 4.06 µM; in [6], 3.44 µM. The GI50 in [7] is 5.04 µM; in assay [8] it was 2.27 µM; in assay [9] it was 39.3 µM; in assay [10] it was 3.34 µM. The TGI was 15.4 µM in [1]; 4.56 µM in [2]; 8.64 µM in assay [3]; above 100 µM in assay [4]; above 100 µM in assay [5]; 20.9 µM in assay [6]. Moreover, the TGI was 44.3 µM in assay [7], 5.75 µM in assay [8], above 100 µM in [9] and 21.5 µM in assay [10].
Consider `C=C(CN(C)C)C(=O)c1ccc(Oc2ccccc2)cc1`, for which the TGI in assay [1] was 6.69 µM; in assay [2], 3.35 µM; in assay [3], 43.7 µM; in assay [4] it was 12.5 µM; in assay [5], 15.6 µM; in assay [6], 15.5 µM. Further, the TGI in [7] is above 21.8 µM; in assay [8], 7.17 µM; in assay [9] it was 19.8 µM; in assay [10], 47.9 µM.
